US7148338B2, “Nucleic acids encoding dipeptidyl peptidases” (The University of Sydney, priority 1999, dated 2006)
Non-standard residues stand in square brackets, D forms with d. Residues, ends and D or L forms follow the SMILES beside them. *: point of attachment. Sta = CC(C)C[C@H](N)[C@@H](O)CC(=O)O; pNA = O=[N+]([O-])c1ccc(N*)cc1; Isovaleryl = CC(C)CC(=O)*; Cbz = O=C(OCc1ccccc1)*

How the values were obtained:
DPP8 [1] = biological target: T1, DPP8 (Homo sapiens, UniProt Q6V1X1); test: Inhibition of peptidase activity of purified DPP8, substrate H-Ala-Pro-pNA; assay type: biochemical; parameters: the full length DPP8 cDNA of 3.1 kb was cloned into the Xba I site of pcDNA3.1A/V5/His expression vector; His tag (C); made in house; host or cells: COS-7 cells, stably transfected; conditions: for Residual activity (% of control): 1 mM H-Ala-Pro-pNA, pH 7.4
T1 sequence (Q6V1X1 17-898 limits assumed): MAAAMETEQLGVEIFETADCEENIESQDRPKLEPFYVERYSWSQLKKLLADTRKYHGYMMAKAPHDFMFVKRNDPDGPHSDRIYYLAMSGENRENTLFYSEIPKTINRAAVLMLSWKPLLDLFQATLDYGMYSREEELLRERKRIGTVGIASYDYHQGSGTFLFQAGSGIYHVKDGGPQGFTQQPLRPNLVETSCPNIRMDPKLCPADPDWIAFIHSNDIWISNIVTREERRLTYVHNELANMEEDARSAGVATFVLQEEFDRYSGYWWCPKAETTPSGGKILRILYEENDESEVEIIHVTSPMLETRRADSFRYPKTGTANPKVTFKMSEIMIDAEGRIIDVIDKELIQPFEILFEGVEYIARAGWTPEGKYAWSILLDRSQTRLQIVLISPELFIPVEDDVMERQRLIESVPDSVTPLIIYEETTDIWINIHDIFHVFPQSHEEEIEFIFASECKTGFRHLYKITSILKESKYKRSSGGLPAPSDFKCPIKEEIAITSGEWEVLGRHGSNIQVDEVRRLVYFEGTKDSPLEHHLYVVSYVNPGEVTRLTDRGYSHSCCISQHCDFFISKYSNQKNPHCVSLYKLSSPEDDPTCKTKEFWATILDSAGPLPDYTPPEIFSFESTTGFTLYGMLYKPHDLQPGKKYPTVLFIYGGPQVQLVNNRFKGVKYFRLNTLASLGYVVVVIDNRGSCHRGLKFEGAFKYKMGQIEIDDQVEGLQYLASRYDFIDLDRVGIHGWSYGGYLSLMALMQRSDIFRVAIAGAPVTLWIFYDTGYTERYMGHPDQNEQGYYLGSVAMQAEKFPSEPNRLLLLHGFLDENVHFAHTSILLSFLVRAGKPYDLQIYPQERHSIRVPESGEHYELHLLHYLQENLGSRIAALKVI
Description: (§1) Cells (1×10^7) expressing each protein were sonicated in native buffer (50 mM sodium phosphate, 300 mM NaCl), then treated with 700 U DNAse for 20 min at room temperature. DPPIV is expressed at the cell surface, so 1% Triton X-100 was used to solubilize DPPIV/V5/His. Insoluble material was removed by centrifugation. The supernatant was incubated with 1 mL Talon® Metal Affinity Resin (Clontech) following the manufacturer's instructions for a batch/gravity flow procedure. The resin was washed with 50 mM sodium phosphate, containing 300 mM NaCl and 5 mM imidazole, and proteins were eluted using the same buffer containing 150 mM imidazole. Enzyme activity was used to monitor eluted fractions.
(§2) Enzyme assays were performed as described previously. Either clarified cell extract from 1×10^4 sonicated COS-7 cells or purified protein derived from 1×10^5 cells was incubated with substrate in 70 μL phosphate buffer, pH 7.4, for 30 min at 37° C., except where otherwise indicated. The specific DPPIV substrates, Gly-Pro-toluenesulfonate, H-Gly-Pro-p-nitroanilide (NA)/HCl (Sigma, St Louis, Mo., USA) and Gly-Pro-7-amino-4-trifluromethylcoumarin (Calbiochem, San Diego, Calif., USA) were tested. Other substrates tested were H-Ala-Pro-pNA/HCl, H-Arg-Pro-pNA acetate salt, H-Lys-Ala-pNA.2HCl, H-Asp-Pro-pNA, H-Ala-Ala-pNA/HCl, H-Ala-Ala-Pro-pNA/HCl, H-Ala-Ala-Phe-pNA, succinyl-Ala-Pro-pNA, H-Ala-Phe-Pro-pNA and Z-Ala-Pro-p-NA from Bachem (Switzerland). H-Ala-Pro-4-methoxyβNA/HCl, Z-Lys-Pro-4-methoxyβNAformate salt, H-Lys-Pro-4-methoxyβNA/HCl, Z-Ala-Pro-4-methoxyβNA, H-Gly-Pro-βNA and H-His-Ser-4-methoxyβNAacetate salt (Bachem) were tested for their ability to stain unfixed transfected cells. All inhibitors were (see Table 2) incubated with each purified enzyme in phosphate buffer, pH 7.4, for 15 min before the addition of substrate. After the addition of 1 mM H-Ala-Pro-pNA substrate for purified DPP8 and 1 mM H-Gly-Pro-pNA substrate for purified DPPIV, samples were incubated for 60 min at 37° C. All enzyme assays were performed in triplicate.

DPPIV [2] = biological target: T2, DPPIV (Homo sapiens, UniProt P27487); test: Inhibition of peptidase activity of purified DPPIV, substrate H-Gly-Pro-pNA; assay type: biochemical; parameters: His tag; made in house; host or cells: transfected COS-7 cells; solubilised with 1% Triton X-100; conditions: 1 mM H-Gly-Pro-pNA, pH 7.4
T2 sequence (P27487 whole entry): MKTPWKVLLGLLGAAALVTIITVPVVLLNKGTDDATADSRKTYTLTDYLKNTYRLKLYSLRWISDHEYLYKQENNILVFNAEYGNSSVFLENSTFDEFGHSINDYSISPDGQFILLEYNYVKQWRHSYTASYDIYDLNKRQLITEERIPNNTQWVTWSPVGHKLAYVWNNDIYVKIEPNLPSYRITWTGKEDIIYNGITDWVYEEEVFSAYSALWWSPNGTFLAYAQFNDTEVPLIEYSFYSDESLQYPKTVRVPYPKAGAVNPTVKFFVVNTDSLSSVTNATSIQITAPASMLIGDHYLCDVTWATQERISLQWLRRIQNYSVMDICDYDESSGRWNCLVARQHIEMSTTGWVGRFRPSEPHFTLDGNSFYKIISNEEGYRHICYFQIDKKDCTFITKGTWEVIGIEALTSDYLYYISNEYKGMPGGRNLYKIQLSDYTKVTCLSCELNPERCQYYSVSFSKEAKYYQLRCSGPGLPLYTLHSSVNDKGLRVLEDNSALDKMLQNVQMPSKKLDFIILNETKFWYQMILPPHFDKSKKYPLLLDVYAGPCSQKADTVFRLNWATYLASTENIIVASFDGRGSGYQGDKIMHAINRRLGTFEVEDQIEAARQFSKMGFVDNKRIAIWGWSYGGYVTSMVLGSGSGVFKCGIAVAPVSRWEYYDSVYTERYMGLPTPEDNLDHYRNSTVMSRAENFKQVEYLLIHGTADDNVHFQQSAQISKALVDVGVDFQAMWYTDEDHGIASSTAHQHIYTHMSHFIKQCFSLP
Description: as §1, §2

[3] = system: DPP8-transfected COS cells and CHO cells; test: Cytochemical staining of unfixed transfected cell monolayers by substrates; assay type: cell-based; conditions: data not shown
Description: (§3) Monkey kidney fibroblast (COS-7) cells (American Type Culture Collection, CRL-1651) were grown and transfected as described previously. For making stable cell lines, Geneticin (G418; Gibco-BRL) was added to the medium, beginning 24 h after transfection. COS cell extracts were prepared by sonication followed by differential centrifugation and neither boiled nor reduced before SDS/PAGE (10% gel) and transfer to nitrocellulose, as described previously. The presence of DPP8 fused with the V5 epitope was detected using an anti-V5 mAb (Invitrogen). COS cell monolayers were fixed in cold ethanol before staining with anti-V5 mAb. Some monolayers were fixed in 4% paraformaldehyde and permeabilized with 0.1% Triton X-100 [35], then double-stained with wheat germ agglutinin to label Golgi apparatus and with goat anti-mouse IgG to label DPP8, conjugated to Alexa Fluor 488 and Alexa Fluor 594, respectively (Molecular Probes, Eugene, Oreg., USA). Flow cytometry and confocal scanning microscopy using a Leica TCS-NT confocal microscope have been described previously.
Enzyme assays were performed as described previously. Either clarified cell extract from 1×10^4 sonicated COS-7 cells or purified protein derived from 1×10^5 cells was incubated with substrate in 70 μL phosphate buffer, pH 7.4, for 30 min at 37° C., except where otherwise indicated. […]

DPP8/V5/His = biological target: T3, DPP8/V5/His (Homo sapiens, UniProt Q6V1X1); test: Substrate hydrolysis by purified recombinant DPP8/V5/His; assay type: biochemical
T3 construct: the full length DPP8 cDNA of 3.1 kb was cloned into the Xba I site of pcDNA3.1A/V5/His expression vector; His tag (C); made in house; host or cells: COS-7 cells, stably transfected
T3 sequence (Q6V1X1 17-898 limits assumed): as the sequence (Q6V1X1 17-898 limits assumed) above
Description: as §1, §2

DPP8 [4] = biological target: T1, DPP8; test: Substrate hydrolysis by extracts of DPP8-transfected COS-7 cells; assay type: biochemical; parameters: the full length DPP8 cDNA of 3.1 kb was cloned into the Xba I site of pcDNA3.1A/V5/His expression vector; expressed in transfected cells; host or cells: COS-7 (monkey kidney fibroblast) cells; clarified sonicated cell extract; conditions: above the levels of untransfected COS-7 cells; data not shown
Description: as §3, §2
DPPIV expressed in COS-7 cells with or without the V5/His tag were positive controls, and negative controls included vector-only transfected COS07 cells. […] The pH optimum of DPP8 enzyme activity was 7.4 (FIG. 5A), similar to the pH 7.8 optimum DPPIV enzyme activity. […]

DPP8 [5] = biological target: T1, DPP8; test: Enzyme kinetics (Km, Vmax) of purified DPP8; assay type: biochemical; parameters: the full length DPP8 cDNA of 3.1 kb was cloned into the Xba I site of pcDNA3.1A/V5/His expression vector; His tag (C); made in house; host or cells: COS-7 cells, stably transfected; conditions: for Km: Michaelis-Menten fit
Description: (§4) FIG. 7. DPP8 enzyme activity. (A) pH-dependence of DPP8 enzyme activity. (B) DPP8 and DPPIV enzyme kinetics. Means +/− SD of absorbance change per minute, multiplied by 1000 are shown. Curve fitting assumed Michaelis-Menten kinetics.
as §1, §2

DPPIV/V5/His = biological target: T4, DPPIV/V5/His (Homo sapiens, UniProt P27487); test: Substrate hydrolysis by purified recombinant DPPIV/V5/His; assay type: biochemical
T4 construct: His tag; made in house; host or cells: transfected COS-7 cells; solubilised with 1% Triton X-100
T4 sequence (P27487 whole entry): as the sequence (P27487 whole entry) above
Description: as §1, §2

DPPIV [6] = biological target: T2, DPPIV; test: Enzyme kinetics (Km, Vmax) of purified DPPIV; assay type: biochemical; parameters: His tag; made in house; host or cells: transfected COS-7 cells; solubilised with 1% Triton X-100; conditions: for Km: Michaelis-Menten fit
Description: as §4, §1, §2

DPPIV [7] = biological target: T2, DPPIV; conditions: reference [46]; cited from earlier work

In the case of `O[C@H](CS)[C@H](O)CS` (racemic) [Dithiothreitol], the “Residual activity (% of control)” value (DPP8 [1]; inhibitor 2 mM) is reported as 108 % of control and the “Residual activity (% of control)” value (DPPIV [2]; inhibitor 2 mM) is reported as 109 % of control.
For `COc1cc(NC(=O)[C@@H]2CCCN2C(=O)[C@H](C)N)cc2ccccc12.Cl` [Ala-Pro-4MβNA/HCl, H-Ala-Pro-4-methoxyβNA/HCl], the “Staining of DPP8-transfected cells by substrate” value [3] was “stained”.
For `Cl.N=C(N)c1ccccc1` [Benzamidine/HCl], the “Residual activity (% of control)” value (DPP8 [1]; inhibitor 10 mM) was 82 % of control and the “Residual activity (% of control)” value (DPPIV [2]; inhibitor 10 mM) was 89 % of control.
In the case of `C[C@H](N)C(=O)N[C@@H](C)C(=O)N[C@@H](Cc1ccccc1)C(=O)Nc1ccc([N+](=O)[O-])cc1` [H-Ala-Ala-Phe-pNA] (H-Ala-Ala-Phe-pNA), the “Hydrolysis (cleavage) of substrate by purified recombinant DPP8” value (“Hydrolysis (cleavage) of substrate” below) (DPP8/V5/His) is reported as “neither”.
With `C[C@H](N)C(=O)N[C@@H](C)C(=O)N1CCC[C@H]1C(=O)Nc1ccc([N+](=O)[O-])cc1.Cl` [H-Ala-Ala-Pro-pNA] (H-Ala-Ala-Pro-pNA) the “Hydrolysis of substrate by extracts of DPP8-transfected COS-7 cells” value (“Hydrolysis … of DPP8-transfected COS-7 cells” below) (DPP8 [4]) was “exhibited tripeptidyl peptidase activity”.
For `C[C@H](N)C(=O)N[C@@H](Cc1ccccc1)C(=O)N1CCC[C@H]1C(=O)Nc1ccc([N+](=O)[O-])cc1` [H-Ala-Phe-Pro-pNA] (H-Ala-Phe-Pro-pNA), the “Hydrolysis (cleavage) of substrate” value (DPP8/V5/His) was “neither”.
In the case of `C[C@H](N)C(=O)N1CCC[C@H]1C(=O)Nc1ccc([N+](=O)[O-])cc1` [H-Ala-Pro-pNA] (H-Ala-Pro-pNA), the “Hydrolysis (cleavage) of substrate” value (DPP8/V5/His) is reported as “hydrolyzed”, the Vmax (DPP8 [5]) is reported as 12.4 ± 0.9 ΔA min^−1 × 1000 and the Km (DPP8 [5]) is reported as 991 ± 171 µM. The “Hydrolysis of substrate by purified recombinant DPPIV” value (DPPIV/V5/His) was “hydrolyzed”, the Vmax (DPPIV [6]) was 9.6 ± 1.0 ΔA min^−1 × 1000 and the Km (DPPIV [6]) was 374 ± 134 µM. The “Hydrolysis … of DPP8-transfected COS-7 cells” value (DPP8 [4]) was “hydrolyzed”.
In the case of `NC(N)=NCCC[C@H](N)C(=O)N1CCC[C@H]1C(=O)Nc1ccc([N+](=O)[O-])cc1` [H-Arg-Pro-pNA] (H-Arg-Pro-pNA), the “Hydrolysis (cleavage) of substrate” value (DPP8/V5/His) is reported as “hydrolyzed”, the “Hydrolysis of substrate by purified recombinant DPPIV” value (DPPIV/V5/His) is reported as “hydrolyzed” and the “Hydrolysis … of DPP8-transfected COS-7 cells” value (DPP8 [4]) is reported as “hydrolyzed”.
In the case of `NCC(=O)N1CCC[C@H]1C(=O)Nc1ccc([N+](=O)[O-])cc1` [H-Gly-Pro-pNA, H-Gly-Pro-p-nitroanilide] (H-Gly-Pro-pNA), the “Hydrolysis (cleavage) of substrate” value (DPP8/V5/His) is reported as “hydrolyzed”, the Vmax (DPP8 [5]) is reported as 3.5 ± 0.14 ΔA min^−1 × 1000 and the Km (DPP8 [5]) is reported as 467 ± 64 µM. For the same compound, the “Hydrolysis of substrate by purified recombinant DPPIV” value (DPPIV/V5/His) was “hydrolyzed”, the Vmax (DPPIV [6]) was 7.2 ± 0.49 ΔA min^−1 × 1000 and the Km (DPPIV [6]) was 347 ± 88 µM.
With `NC(=O)CI` [Iodoacetamide] the “Residual activity (% of control)” value (DPP8 [1]; inhibitor 2 mM) was 100 % of control and the “Residual activity (% of control)” value (DPPIV [2]; inhibitor 2 mM) was 115 % of control.
With `CC(=O)N[C@@H](CC(C)C)C(=O)N[C@@H](CC(C)C)C(=O)N[C@H](C=O)CCCNC(=N)N` [Leupeptin] the “Residual activity (% of control)” value (DPP8 [1]; inhibitor 0.1 mM) was 93 % of control and the “Residual activity (% of control)” value (DPPIV [2]; inhibitor 0.1 mM) was 104 % of control.
With `CC(C)CC(=O)N[C@H](C(=O)N[C@H](C(=O)N[C@@H](CC(C)C)[C@@H](O)CC(=O)N[C@@H](C)C(=O)N[C@@H](CC(C)C)[C@@H](O)CC(=O)O)C(C)C)C(C)C` [Pepstatin] (Isovaleryl-VV[Sta]A[Sta]-OH) the “Residual activity (% of control)” value (DPP8 [1]; inhibitor 2 μg mL^−1) was 107 % of control and the “Residual activity (% of control)” value (DPPIV [2]; inhibitor 2 μg mL^−1) was 110 % of control.
With `C[C@H](NC(=O)OCc1ccccc1)C(=O)N1CCC[C@H]1C(=O)Nc1ccc([N+](=O)[O-])cc1` [Z-Ala-Pro-pNA] (Cbz-Ala-Pro-pNA) the “Hydrolysis … of DPP8-transfected COS-7 cells” value (DPP8 [4]) was “endopeptidase activity”.
For `O=S(=O)([O-])[O-].[Zn+2]` [Zinc sulphate], the “Inhibition of DPPIV enzyme activity (in words)” value (DPPIV [7]) is listed as “completely inhibits”.
For “Ala-Pro-Gly (APG) [peptide that mimics DPP8 substrates]”, the “Residual activity (% of control)” value (DPP8 [1]; inhibitor 10 mM) was 51 % of control, the “Inhibition of DPP8 enzyme activity (in words)” value (DPP8 [1]; purified DPP8) was “probably competitively inhibited” and the “Residual activity (% of control)” value (DPPIV [2]; inhibitor 10 mM) was 67 % of control.
With Aprotinin the “Residual activity (% of control)” value (DPP8 [1]; inhibitor 4 μg mL^−1) was 47 % of control and the “Residual activity (% of control)” value (DPPIV [2]; inhibitor 4 μg mL^−1) was 81 % of control.
With Gly-Gly-Gly (GGG) [peptide] the “Residual activity (% of control)” value (DPP8 [1]; inhibitor 10 mM) was 99 % of control and the “Residual activity (% of control)” value (DPPIV [2]; inhibitor 10 mM) was 106 % of control.
